Measured values: patent US20240218084A1, “METHOD FOR PURIFYING FOMES OFFICINALIS POLYSACCHARIDE BY SEQUENTIAL SIMULATED MOVING CHROMATOGRAPHY” (HEILONGJIANG BAYI AGRICULTURAL UNIVERSITY, priority 2022, published 2024)

Test system: Macrophage RAW264.7
Assay: NO production by macrophage RAW264.7 stimulated with polysaccharide (Griess reagent)
Type: cell-based
Conditions: RAW264.7 cells, positive control 1 μg/mL lipopolysaccharide (LPS), 24 h incubation, supernatant, 540 nm
Description: Macrophage RAW264.7 is stimulated using Fomes officinalis polysaccharides prepared in Embodiments 1-3, and the concentrations of NO produced therefrom are determined, and the results are shown in Table 1. Specific experimental methods: 100 microliters (L) of RAW264.7 cells (1×10^6 cells/mL) are added to 96 microtiter plates and pre-cultured in a 37° C. 5% CO2 incubator for 24 hours (h). The supernatant is discarded, and 200 μL of 5 micrograms per milliliter (μg/mL) polysaccharide solution is added to the cells, the culture solution is used as a negative control, and 1 μg/mL lipopolysaccharide (LPS) is used as a positive control, then the cells are incubated for 24 h. To determine the NO level in the supernatant, 100 μL of supernatant is added with 100 μL of Griess reagent, and the absorbance is measured at 540 nm after 10 min of reaction at room temperature and protected from light using an enzyme labeler (Biotek instruments, Winooski, VT, USA), and the NO yield is calculated by substituting the absorbance value of the samples into the standard curve, using sodium nitrite as the standard.

“lipopolysaccharide [Positive control group]” was tested, and the NO yield was 41.06 µmol/L.
